Assays:
UACC-62 = assay: NCI60 one-dose screen (10 μM), Melanoma; format: cell-based; settings: Homo sapiens; 10 μM; UACC-62, Melanoma; read-out: Growth percent rate
HS 578T = assay: NCI60 one-dose screen (10 μM), Breast Cancer; format: cell-based; settings: Homo sapiens; 10 μM; HS 578T, Breast Cancer; read-out: Growth percent rate
MDA-MB-468 = assay: NCI60 one-dose screen (10 μM), Breast Cancer; format: cell-based; settings: Homo sapiens; 10 μM; MDA-MB-468, Breast Cancer; read-out: Growth percent rate
NCI-H226 = assay: NCI60 one-dose screen (10 μM), Non-small Cell Lung Cancer; format: cell-based; settings: Homo sapiens; 10 μM; NCI-H226, Non-small Cell Lung Cancer; read-out: Growth percent rate
SR = assay: NCI60 one-dose screen (10 μM), Leukemia; format: cell-based; settings: Homo sapiens, 10 μM, Leukemia, read-out: Growth percent rate
SN12C = assay: NCI60 one-dose screen (10 μM), Renal Cancer; format: cell-based; settings: Homo sapiens, 10 μM, Renal Cancer, read-out: Growth percent rate
OVCAR-3 = assay: NCI60 one-dose screen (10 μM), Ovarian Cancer; format: cell-based; settings: Homo sapiens; 10 μM; OVCAR-3, Ovarian Cancer; read-out: Growth percent rate
T-47D = assay: NCI60 one-dose screen (10 μM), Breast Cancer; format: cell-based; settings: Homo sapiens, T47D; 10 μM; T-47D, Breast Cancer; read-out: Growth percent rate
HOP-92 = assay: NCI60 one-dose screen (10 μM), Non-small Cell Lung Cancer; format: cell-based; settings: Homo sapiens; 10 μM; HOP-92, Non-small Cell Lung Cancer; read-out: Growth percent rate
UO-31 = assay: NCI60 one-dose screen (10 μM), Renal Cancer; format: cell-based; settings: Homo sapiens; 10 μM; UO-31, Renal Cancer; read-out: Growth percent rate
EKVX = assay: NCI60 one-dose screen (10 μM), Non-small Cell Lung Cancer; format: cell-based; settings: Homo sapiens, 10 μM, Non-small Cell Lung Cancer, read-out: Growth percent rate
HCT-116 = assay: NCI60 one-dose screen (10 μM), Colon Cancer; format: cell-based; settings: Homo sapiens; 10 μM; HCT-116, Colon Cancer; read-out: Growth percent rate
NCI-H522 = assay: NCI60 one-dose screen (10 μM), Non-small Cell Lung Cancer; format: cell-based; settings: Homo sapiens; 10 μM; NCI-H522, Non-small Cell Lung Cancer; read-out: Growth percent rate
NCI/ADR-RES = assay: NCI60 one-dose screen (10 μM), Ovarian Cancer; format: cell-based; settings: Homo sapiens, 10 μM, Ovarian Cancer, read-out: Growth percent rate
HCC-2998 = assay: NCI60 one-dose screen (10 μM), Colon Cancer; format: cell-based; settings: Homo sapiens; 10 μM; HCC-2998, Colon Cancer; read-out: Growth percent rate
BT-549 = assay: NCI60 one-dose screen (10 μM), Breast Cancer; format: cell-based; settings: Homo sapiens; 10 μM; BT-549, Breast Cancer; read-out: Growth percent rate
OVCAR-5 = assay: NCI60 one-dose screen (10 μM), Ovarian Cancer; format: cell-based; settings: Homo sapiens; 10 μM; OVCAR-5, Ovarian Cancer; read-out: Growth percent rate
MDA-MB-231/ATCC = assay: NCI60 one-dose screen (10 μM), Breast Cancer; format: cell-based, human; settings: Homo sapiens; 10 μM; MDA-MB-231/ATCC, Breast Cancer; read-out: Growth percent rate
PC-3 = assay: NCI60 one-dose screen (10 μM), Prostate Cancer; format: cell-based; settings: Homo sapiens; 10 μM; PC-3, Prostate Cancer; read-out: Growth percent rate
SK-OV-3 = assay: NCI60 one-dose screen (10 μM), Ovarian Cancer; format: cell-based; settings: Homo sapiens; 10 μM; SK-OV-3, Ovarian Cancer; read-out: Growth percent rate

## CC[C@]12C=CCN3CC[C@@]4(c5ccc(OC)cc5N(C)[C@H]4[C@@](O)(C(=O)OC)[C@@H]1OC(=O)CCC(=O)N1CCN(Cc4ccc(F)cc4)CC1)[C@@H]32 [Compound 30]
UACC-62
  activity at 10 µM: 67.1%
HS 578T
  activity at 10 µM: 78.5%
MDA-MB-468
  activity at 10 µM: 1.38%
NCI-H226
  activity at 10 µM: 69.9%
SR
  activity at 10 µM: 56.4%
SN12C
  activity at 10 µM: 71.2%
OVCAR-3
  activity at 10 µM: 63.7%
T-47D
  activity at 10 µM: 73.8%
HOP-92
  activity at 10 µM: 66.4%
UO-31
  activity at 10 µM: 62.3%
EKVX
  activity at 10 µM: 60.2%
HCT-116
  activity at 10 µM: 67.8%
NCI-H522
  activity at 10 µM: 59.7%
NCI/ADR-RES
  activity at 10 µM: 65.2%
HCC-2998
  activity at 10 µM: 85.3%
BT-549
  activity at 10 µM: 98.1%
OVCAR-5
  activity at 10 µM: 96.3%
MDA-MB-231/ATCC
  activity at 10 µM: 65.3%
PC-3
  activity at 10 µM: 44.5%
SK-OV-3
  activity at 10 µM: 103%

## CCC12C=CCN3CCC4(c5ccc(OC)cc5N(C)C4C(O)(C(=O)OC)C1OC(=O)CCCBr)C32 (stereo not shown) [Compound 14, 17-(O-4-bromobutanoyl)vindoline]
UACC-62
  activity at 10 µM: 83.8%
HS 578T
  activity at 10 µM: 94.5%
MDA-MB-468
  activity at 10 µM: 95.7%
NCI-H226
  activity at 10 µM: 96%
SR
  activity at 10 µM: 98.4%
SN12C
  activity at 10 µM: 97.4%
OVCAR-3
  activity at 10 µM: 99.7%
T-47D
  activity at 10 µM: 77.2%
HOP-92
  activity at 10 µM: 77.6%
UO-31
  activity at 10 µM: 82.5%
EKVX
  activity at 10 µM: 91.2%
HCT-116
  activity at 10 µM: 87%
NCI-H522
  activity at 10 µM: 79%
NCI/ADR-RES
  activity at 10 µM: 89.2%
HCC-2998
  activity at 10 µM: 93.8%
BT-549
  activity at 10 µM: 99.1%
OVCAR-5
  activity at 10 µM: 101%
MDA-MB-231/ATCC
  activity at 10 µM: 90.6%
PC-3
  activity at 10 µM: 79%
SK-OV-3
  activity at 10 µM: 101%

Source: article PMC11277489, “Novel Piperazine Derivatives of Vindoline as Anticancer Agents” (International Journal of Molecular Sciences, 2024)
